Measured values as given in patent publication US7368576B2, “Dipeptidyl peptidase IV inhibitors and their uses as anti-cancer agents” (Probiodrug AG, priority 2001, dated 2008).
Entries after “also recorded” stand apart in the source; their conditions may differ. Structures can show the parent of a compound that is named as a salt.

What was measured:
[1] = REINHOLD, D., et al., 1998; cited from earlier work
[2] = system: MADB106 tumor cells; assay: In vivo cancer cell adhesion assay (CFSE labeled cells in lungs); design: species or system F344 rats; settings: 30 min after inoculation
Protocol: (§1) Cell culture, injection of tumor cells, dissection of the animals and immunohistochemistry were conducted as previously described (von Hörsten et al., 2000). In brief, 1×10^6 MADB106 tumor cells derived from log phase of tumor growth were injected via the lateral tail vein and lungs removed at different time points thereafter. For in situ quantification of tumor cells at early time points after injection (30 min), cells were vital dye stained using the fluorescein derivate 5- (and -6)-carboxyfluorescein diacetate succinimidyl ester (CFSE) before injection.
Control sections were included in which one or both primary antibodies were omitted.
Vital dye (Carboxyfluorescein; CFSE) labeling of MADB106 tumor cells allows the quantification of tumor cells and NK cells in thick sections of lung tissue by stereology in situ (von Hörsten et al, 2000). In the present study we produced thin sections (8 μm) of the same lungs (n=10) and performed additional microscopic counting by image analysis of DE1 positive cells. This was done to further simplify the previously validated stereological quantification technique. Therefore, in the present study, the assessment of DE1 positive tumor cells in lung tissue from different substrains 30 min after tumor inoculation was carried out using image analysis approach. […] Each right upper lobe of the lungs was sectioned at 6 randomly chosen non-adjacent levels. From each level, three sections were evaluated.

[3] = system: MADB106 tumor cells; assay: Cancer colonization assay (lung surface tumor colonies); type: in vivo; settings: F344 rats, 2 weeks after MADB106 injection; for number of lung surface tumor colonies, comparison of inhibitors: chronic intragastric infusion, isoleucyl thiazolidine fumarate 4 mg/24 h, the others 0.1 mg/24 h, vs. saline SHAM
Protocol: as §1
as §1, with “In” for “Cell culture, injection of tumor cells, dissection of the animals and immunohistochemistry were conducted as previously described (von Hörsten et al., 2000). In”
(§2) Osmotic minipumps (Alzet model 2ML4; flow rate, 2.5 μl/hr; Alza Corporation), administering a constant supply of the different compounds, aseptically prefilled with either saline or DPIV inhibitor were placed subcutaneously in the abdominal area. Minipums were attached to a cannula via polyethylene tubing. The cannula was implanted intragastrically with a heating-induced enlarged tip of the cannula in the lumen of the gaster.

[4] = system: MADB106 tumor cells; assay: Body weight change in rats with lung metastasis; type: in vivo; settings: F344 rats, chronic intragastric infusion via osmotic minipumps, 0.04, 0.4, 4 mg/24 h, 2 weeks after MADB106 injection, post-hoc significant at 0.4 mg and 4 mg
Protocol: as §2
Data from in vivo body weight gain and number of lung surface tumor colonies were analyzed by one-way ANOVAs and Fisher's PLSD post hoc tests, if appropriate. An asterisk indicates significant post hoc effects vs. saline (SHAM) treated controls obtained by Fisher's PLSD. All data are presented as means±S.E.M.

[5] = system: MADB106 tumor cells; assay: Cancer colonization assay (lung surface tumor colonies); type: in vivo, F344 rats; settings: F344USA rats, 2 mg i.v. + 2 mg i.p., 2 weeks after MADB106 injection, vs. saline; fumarate

SMILES: N[C@@H](CCC(=O)NCC(=O)O)C(=O)N1CCSC1 [Glu(Gly)-Thia]
- transport [1]: transported completely

SMILES: CC[C@H](C)[C@H](N)C(=O)N1CCSC1 [Isoleucyl thiazolidine fumarate]
- tumor cell adhesion, CFSE positive cells in lung tissue ([2]; DPIV mutant F344GER and F344JAP rats, single injection 2 mg i.v. + 2 mg i.p., fumarate): significantly modified; also recorded: promoting effect
- tumor cell adhesion, CFSE positive cells in lung tissue ([2]; wild-type F344USA rats, single injection i.v. + i.p., vs. saline, fumarate): did not significantly affect tumor adhesion; also recorded: lack of effects
- number of lung surface tumor colonies, different dosages ([3]; chronic intragastric infusion 0.04, 0.4, 4 mg/24 h, post-hoc significant at 4 mg, fumarate): significant effect; also recorded: dose dependent reduction of lung colony numbers
- number of lung surface tumor colonies, comparison of inhibitors ([3]; fumarate): dose-dependently reduced; also recorded: significant reduction of lung colony numbers
- body weight change (cancer-induced weight loss) ([4]; fumarate): dose-dependently reduced; also recorded: dose dependent reduction of the loss of body weight
- number of lung surface tumor colonies after single injection [5]: no significant effect; also recorded: no significant differences

SMILES: N[C@@H](CCCCNC(=O)OCc1ccc([N+](=O)[O-])cc1)C(=O)N1CCSC1 [Lys(Z-NO2)-Thia]
- transport [1]: transported completely

SMILES: CC[C@H](C)[C@H](N)C(=O)N1CCCC1C#N.O=C(O)C(F)(F)F (stereo partly drawn) [isoleucyl cyanopyrrolidine TFA]
- tumor cell adhesion, CFSE positive cells in lung tissue ([2]; wild-type F344USA rats, single injection i.v. + i.p., vs. saline, TFA): no significant effect; also recorded: significant differences vs. saline treated controls were not found
- number of lung surface tumor colonies, comparison of inhibitors ([3]; TFA): significant reduction of lung colony numbers
- number of lung surface tumor colonies, comparison of inhibitors ([3]; listed as isoleucyl cyano pyrrolidine TFA, TFA): dose-dependently reduced
- body weight change (cancer-induced weight loss) [4]: dose-dependently reduced
